From a melting point compilation (Tetko et al.; mined from patent text by program, amines drawn as free bases though some values may be those of a salt) come the findings set out here.

Take `C=Cc1ccc(C=CC#N)cc1`: the melting point is 45.8 °C. Take `CC(=O)NC1(c2ccc(C(C)N3CCN(c4ccc(F)cc4)CC3)cc2)CC1` (stereo not drawn): the melting point lay within 149 to 150 °C.

With `CCC(CC)Nc1cc(-c2c(-c3cccc(C)c3)nc3cccnn23)ccn1`, the melting point was 155 to 156 °C. `CCCCc1cc2cc(NS(C)(=O)=O)ccn2c1C(=O)c1ccc(OCCCN(CCCC)CCCC)cc1`: the melting point lay in the range of 87 to 88 °C. Turning to `Cn1cc(C2=C(c3cn(C)c4cc(CC#N)ccc34)C(=O)NC2=O)c2ccccc21`, the melting point was 225 to 226 °C. For `CC1(C)N=C(c2ccccc2Cl)c2cc([N+](=O)[O-])ccc2N(CCO)C1=O` the value was 192 to 194 °C; for `CCOC(=O)c1cc2c(OC=O)c(OC[C@H]3CO3)ccc2[nH]1`, 123 to 125 °C; for `CCOC(=O)C(=O)c1ccc(OCCOc2ccc3ccccc3c2)s1`, 98 to 100 °C. The value for `Cc1cc(SCc2ccnc3oc(-c4ccc(C(F)(F)F)cc4)nc23)ccc1OCC(=O)O` was 154 to 157 °C. For the compound `Cc1cc(CCCCCOc2c(C)cc(-c3noc(C(F)(F)F)n3)cc2C)on1`, the melting point fell in the range of 41 to 42 °C.

As for `Cn1c(COCCn2cnc3c(N)nc4ccccc4c32)cc2ccccc21`, the melting point is 243 to 245 °C. `CCCCCCCCCCCCCCCCCCC1CNc2ccc(C(=O)O)cc21` (racemic) had a melting point of 84 to 87 °C. In the case of `CC1(C)OC(c2ccc(S(C)(=O)=O)cc2)=C(c2ccc(F)c(Cl)c2)C1=O`, the melting point was in the range of 162 to 164 °C. Turning to `CCOC(=O)COC1CCC2C3CCC4N(C)C(=O)CCC4(C)C3CCC12C` (stereo not drawn), the melting point was in the range of 39 to 41 °C. Compound `CC(C)COc1c(-c2ccc(S(N)(=O)=O)cc2)cnn(-c2ccc(F)c(F)c2)c1=O` showed a melting point of 169 to 171 °C.

`Cc1cccc(NC(=O)NC2CN(C(=O)NC3CCCCC3)c3ccccc3N(CC(=O)c3ccccc3C)C2=O)c1` (stereo not drawn) yielded a melting point of 117 to 119 °C.

Turning to `NC(=O)c1cc2cc(OC(F)(F)F)cc(NS(=O)(=O)c3cccs3)c2[nH]1`, the melting point is over 300 °C. `O=C(CC12CC3CC(CC(C3)C1)C2)Nc1ccc2[nH]ncc2c1` showed a melting point of 265 °C.

The compound `CC1CCc2c(O)ccc3c(=O)c(C(=O)O)cn1c23` (stereo not drawn) gave a melting point of over 300 °C. On to `O=C(c1ccc(Cl)cc1)c1cccc(Cl)c1[N+](=O)[O-]`, for which the melting point was 147 to 148 °C. `O=C(c1cccc(F)c1)N1CC2CC2(c2ccccc2)C1` (stereo not drawn) had a melting point of 68 to 69.5 °C. `CCCCCCCNC(=O)N(C)c1cccc(-c2ccc(CC3SC(=O)NC3=O)cc2)c1` (stereo not drawn) yielded a melting point of 55 °C. The value for `CCCOc1ccc(-c2ccc3c(c2)C=C(C(=O)OC)CCS3(=O)=O)cc1` was 153 to 155 °C; that for `Cn1ncnc1COc1nc2c(cc1C(C)(C)C)nnn2-c1ccccc1` was 165 to 167 °C; that for `CCCCOc1ccc(C=CC(=O)NCCN(O)C(N)=O)cc1` was 127 to 129 °C.

As to `CCCC(=O)c1cnc2c(OC)cccc2c1Nc1c(C)cc(O)c(O)c1C`, the melting point lay within 151 to 153 °C. The compound `CN1C2CCCC1CC(c1ccc(I)nn1)C2` (stereo not drawn) registered a melting point of 163 to 166 °C. As for `COC(=O)c1cc(CBr)ccc1[N+](=O)[O-]`, the melting point fell in the range of 55 to 56 °C. Compound `CC1=Nc2c(C)nn(C)c2C2=NCCN12` yielded a melting point of 174 to 177 °C. Turning to `NC(=S)c1ccccc1-c1ccccc1`, the melting point was determined as 213 °C.

In the case of `COc1ccc(NC(=O)C(=O)N2CCC(Cc3ccccc3)CC2)cc1`, the melting point lay within 144 to 146 °C.

Regarding `CC(C)(C)OC(=O)N1CCC(c2ccc(N3C[C@H](CN=[N+]=[N-])OC3=O)cc2F)CC1`, the melting point lay in the range of 109 to 110 °C. As to `CC(=O)N1CCC(c2nc3n(C4CCCC4)[nH]c(C)c-3c(=O)n2)CC1`, the melting point fell in the range of 176 to 178 °C.

As for `CCOC(=O)c1cnc2c(C)csc2c1NCc1ccccc1`, the melting point was in the range of 99 to 100 °C.

As to `CCNC(=O)c1ccc(F)cc1`, the melting point lay within 73.2 to 76.3 °C. As for `CCOC(=O)c1c(C(=O)OC)c(O)c2cc(OC)c(OC)c(OC)c2c1-c1ccc(OC)c(OC)c1`, the melting point fell in the range of 157 to 159 °C. As to `COc1nc(N)nc(-c2ccccc2)c1-c1ccc(=O)n(C)n1`, the melting point fell in the range of 218 to 220 °C. `Cc1cc2c(cc1S(=O)(=O)c1ccc(F)cc1)OC(C(=O)O)O2` (stereo not drawn) returned a melting point of 157 to 158 °C. For `CCOC(=O)c1ccc(-c2cnc3c(c2)NC(=O)CN3)cc1` the value was over 200 °C; for `O=C(c1ccccc1)N1CCC(c2nn(-c3ccccc3)c3cc(F)ccc23)CC1`, 149 to 151 °C; for `CCOC(=O)c1cc2cc(C#N)ccc2s1`, 138 to 139 °C.

For `CC(C)COC[C@H](CC(C)C)NC(=O)[C@H]1O[C@@H]1C(=O)OC(C)(C)C`, the melting point was in the range of 73.5 to 74.5 °C. `CCOC(=O)c1cc(Cl)cnc1NC(=O)Cc1cccc(Oc2ccccc2)c1`: the melting point was in the range of 103 to 104 °C.

As for `CCOc1cc2oc(=O)c3c(c2cc1OCC)CCN(CCN1CCCCC1)C3`, the melting point was 144 to 146 °C. In the case of `COc1ccc(CC(=O)O)cc1OCCCc1cn(-c2ccc(C(F)(F)F)cn2)nc1C(C)C`, the melting point lay within 122 to 123 °C.

Compound `O=C(NCC(=O)N1CCN(C(=O)c2cc(C(F)(F)F)cc(C(F)(F)F)c2)[C@H](Cc2c[nH]c3ccccc23)C1)c1ccccc1` showed a melting point of 123 to 135 °C. `COC1(c2ccc(Sc3ccc4c(c3)OCC(=O)N4C)s2)CCOCC1` registered a melting point of 65 to 69 °C.

Turning to `O=C(NC1CCC(CCN2CCC(c3cccc4c3CCO4)CC2)CC1)C1CCOC1` (racemic), the melting point came out at 211 °C. Regarding `O=C1OCC2CCC1(c1ccc(Cl)cc1Cl)O2` (stereo not drawn), the melting point lay within 136 to 137 °C.

`COc1ccc(-c2nc(NC(C)=O)sc2-c2cccnc2)cc1` displayed a melting point of 208 to 210 °C. In turn, `CON=Cc1nc(Nc2ccccc2)nc(C)c1C` had a melting point of 85 to 88 °C.

Compound `CCCC(C)(CO)c1cc(Cl)nnc1Cl` (stereo not drawn) came in with a melting point of 99 to 100 °C. As to `CCc1nn2ccc3c(c2c1CCNC(C)=O)CCO3`, the melting point lay within 161 to 162 °C. The compound `NS(=O)(=O)c1ccc(NC(=O)Nc2c(F)c(F)c(F)c(F)c2F)cc1` had a melting point of 251 to 253 °C. For `CN(C(=O)CCCOc1ccc([N+](=O)[O-])c(C=O)c1)C1CCCCC1` the value was 98 to 100 °C. The value for `O=C1NC(=O)c2c1cc1ccc3c(c1c2-c1ccc(OCc2ccccc2)cc1)OCO3` was 265 to 267 °C; that for `Cc1c(CCc2ccc3[nH]c(N)nc3c2)ncn1C(c1ccccc1)(c1ccccc1)c1ccccc1` was 161 to 164 °C.

With `CC(C)(C)OC(=O)CC[C@H](NC(=O)c1ccc(NCc2cnc(N)c(C#N)n2)cc1)C(=O)OC(C)(C)C`, the melting point fell in the range of 71 to 78 °C.

Compound `CC(C)COC(=O)Oc1ccc2c(c1)OCN(CCO[N+](=O)[O-])C2=O` yielded a melting point of 82 to 84 °C. As for `CC(=O)NC[C@H]1CN(c2ccc(N3CCC(F)(CCl)CC3)c(F)c2)C(=O)O1`, the melting point is 158 to 160 °C. For `CCOC(=O)c1sc(Oc2ccccc2)nc1C(F)(F)F`, the melting point is 52 to 54 °C.

In the case of `CCO[C@@H]1C(C(=O)Nc2ccc(Cl)cc2)=C(C)OC(OCC)(OCC)[C@H]1C` (relative stereo), the melting point was 104 to 106 °C. Turning to `COc1cc2c(=O)n(CCOCCO)c3c4cc5c(cc4ncc3c2cc1OC)OCO5`, the melting point was found to be 235 °C. The value for `CCCN(C(=O)CBr)c1ccc([N+](=O)[O-])cc1C(=O)c1ccccc1` was 122 °C; that for `CC(C)n1nc(-c2sc(NC(=O)n3c4ccccc4c4ccccc43)nc2-c2ccccc2)ccc1=O` was 241 to 242 °C.

In the case of `CS(=O)(=O)c1ccc(-c2[nH]c3ccc(Cl)cc3c2-c2ccccc2Cl)cc1`, the melting point fell in the range of 300 to 302 °C. In turn, `Cc1nc(-c2cccc([N+](=O)[O-])c2)cs1` had a melting point of 87 to 88 °C.

For `CC1(c2cc(-c3cccc(CC4SC(N5CCCC5)=NC4=O)c3)ccc2O)CCCCC1` (stereo not drawn), the melting point was 109 to 110 °C. Take `CCOc1cccc(N2CCN(CCCCOc3ccc4c(n3)NC(=O)CC4)CC2)c1Cl`: the melting point was 110 to 112 °C. Compound `Fc1cc2cc[nH]c2cc1Cl` gave a melting point of 105 to 107 °C. Regarding `O=[N+]([O-])c1cccc2c(Br)nccc12`, the melting point is 187 to 188 °C. Compound `CCOc1ccc2c(Nc3ccc(Cl)cc3F)c(C#N)cnc2c1` yielded a melting point of 221 to 224 °C. `CS(=O)c1cn(-c2c(Cl)cc(C(F)(F)F)cc2Cl)nc1C=NO` (stereo not drawn) displayed a melting point of 239 to 240 °C. The value for `CN1C(=O)C2C3CCC(C3)C2(c2ccc(N)cc2)C1=O` (stereo not drawn) was 131 to 133 °C; that for `Cc1cccc(C)c1CNc1cc(C2=NCCN2)cc2c1nc(C)n2C` was 273 to 274 °C.

Consider `COc1ccc2c3c([nH]c2c1)C(=O)N=NC3=O`, for which the melting point was over 260 °C. For `Cc1cc(=O)c2c([nH]1)CCOC2`, the melting point is over 285 °C.

The compound `CC(=Cc1c(Cl)cc(N(C)C)cc1Cl)[N+](=O)[O-]` returned a melting point of 105 to 110 °C.

`CSC[C@@H](NC(=O)OCc1ccccc1)[C@@H]1COC(C)(C)O1` registered a melting point of 70 to 71 °C.

For `CCCn1nc(-c2ccc(O)c(F)c2)c2cccc(Cl)c21`, the melting point was in the range of 134 to 135 °C.

For the compound `COc1ccc(I)c(CC(=O)O)c1`, the melting point came out at 134 °C. As to `Cc1sc(-n2cccc2C=O)c(C#N)c1C`, the melting point amounted to 154 °C. As to `CCC(=O)NS(=O)(=O)c1ccc(C(=O)C=Cc2cc(-c3cc4ccccc4[nH]3)c(OC)cc2OC)cc1`, the melting point was in the range of 223 to 225 °C. Compound `COc1cc(Nc2nc3ccnc(-c4ccc(S(N)(=O)=O)cc4)c3o2)cc(OC)c1OC` yielded a melting point of over 280 °C. `CCOC(=O)C(C#N)=NOC(=O)OC` registered a melting point of 69 to 71 °C.

On to `Clc1cc(Cl)cc(N=Cc2ccccc2)c1`, for which the melting point fell in the range of 52 to 53 °C. Regarding `CC1(C)CC(OC(=O)CCCCCCCCC(=O)OC2CC(C)(C)N(OCc3ccccc3)C(C)(C)C2)CC(C)(C)N1OCc1ccccc1`, the melting point fell in the range of 58 to 61 °C. On to `Cc1ccc(S(=O)(=O)C2(CC#Cc3ccc(Cl)cc3)SC(=O)NC2=O)cc1` (stereo not drawn), for which the melting point was 172 to 174 °C.
